Test results reported in the kinase profiling compilation of Christmann-Franck et al. (2016).

Columns and labels:
Assay in all cases: Caliper, Mobility shift assay off-chip
[1] = molecular target: MARK4 (human) (UniProt Q96L34)
[2] = test system: FGFR3 (human), P22607 [K650E]
[3] = molecular target: DYRK3 (human) (UniProt O43781)
[4] = molecular target: DYRK4 (human) (UniProt Q9NR20)
[5] = molecular target: EPHB1 (human) (UniProt P54762)
[6] = molecular target: FRK (human) (UniProt P42685)
[7] = molecular target: ALK (human) (UniProt Q9UM73)
[8] = molecular target: JAK2 JH1 JH2 (human) (UniProt O60674)
[9] = molecular target: PRKCI (human) (UniProt P41743)
[10] = molecular target: ITK (human) (UniProt Q08881)
[11] = molecular target: HIPK2 (human) (UniProt Q9H2X6)
[12] = molecular target: CDK1 (human) (UniProt P06493)
[13] = test system: PDGFRA (human), P16234 [V561D]
[14] = molecular target: CLK2 (human) (UniProt P49760)
[15] = molecular target: EPHA8 (human) (UniProt P29322)
[16] = molecular target: ROS1 (human) (UniProt P08922)
[17] = molecular target: AXL (human) (UniProt P30530)
[18] = molecular target: PRKAA2 PRKAB1 PRKAG1 (human) (UniProt Q9Y478+P54646+P54619)
[19] = molecular target: RPS6KA6 KD1 KD2 (human) (UniProt Q9UK32)
[20] = molecular target: MELK (human) (UniProt Q14680)
[21] = molecular target: MERTK (human) (UniProt Q12866)
[22] = molecular target: MST1R (human) (UniProt Q04912)
[23] = molecular target: TYRO3 (human) (UniProt Q06418)
[24] = molecular target: NTRK3 (human) (UniProt Q16288)
[25] = molecular target: CDK5 CDK5R1 p25 (human) (UniProt Q15078+Q00535)
[26] = molecular target: CSNK1G3 (human) (UniProt Q9Y6M4)
[27] = molecular target: DAPK1 (human) (UniProt P53355)
[28] = molecular target: KIT (human) (UniProt P10721)
[29] = molecular target: DCLK1 (human) (UniProt O15075)
[30] = molecular target: TXK (human) (UniProt P42681)
[31] = test system: RET (human), P07949 [Y791F]
[32] = molecular target: PHKG2 (human) (UniProt P15735)
[33] = molecular target: CSNK1G2 (human) (UniProt P78368)

MST1R (human), sequence (Q04912 whole entry, looked up): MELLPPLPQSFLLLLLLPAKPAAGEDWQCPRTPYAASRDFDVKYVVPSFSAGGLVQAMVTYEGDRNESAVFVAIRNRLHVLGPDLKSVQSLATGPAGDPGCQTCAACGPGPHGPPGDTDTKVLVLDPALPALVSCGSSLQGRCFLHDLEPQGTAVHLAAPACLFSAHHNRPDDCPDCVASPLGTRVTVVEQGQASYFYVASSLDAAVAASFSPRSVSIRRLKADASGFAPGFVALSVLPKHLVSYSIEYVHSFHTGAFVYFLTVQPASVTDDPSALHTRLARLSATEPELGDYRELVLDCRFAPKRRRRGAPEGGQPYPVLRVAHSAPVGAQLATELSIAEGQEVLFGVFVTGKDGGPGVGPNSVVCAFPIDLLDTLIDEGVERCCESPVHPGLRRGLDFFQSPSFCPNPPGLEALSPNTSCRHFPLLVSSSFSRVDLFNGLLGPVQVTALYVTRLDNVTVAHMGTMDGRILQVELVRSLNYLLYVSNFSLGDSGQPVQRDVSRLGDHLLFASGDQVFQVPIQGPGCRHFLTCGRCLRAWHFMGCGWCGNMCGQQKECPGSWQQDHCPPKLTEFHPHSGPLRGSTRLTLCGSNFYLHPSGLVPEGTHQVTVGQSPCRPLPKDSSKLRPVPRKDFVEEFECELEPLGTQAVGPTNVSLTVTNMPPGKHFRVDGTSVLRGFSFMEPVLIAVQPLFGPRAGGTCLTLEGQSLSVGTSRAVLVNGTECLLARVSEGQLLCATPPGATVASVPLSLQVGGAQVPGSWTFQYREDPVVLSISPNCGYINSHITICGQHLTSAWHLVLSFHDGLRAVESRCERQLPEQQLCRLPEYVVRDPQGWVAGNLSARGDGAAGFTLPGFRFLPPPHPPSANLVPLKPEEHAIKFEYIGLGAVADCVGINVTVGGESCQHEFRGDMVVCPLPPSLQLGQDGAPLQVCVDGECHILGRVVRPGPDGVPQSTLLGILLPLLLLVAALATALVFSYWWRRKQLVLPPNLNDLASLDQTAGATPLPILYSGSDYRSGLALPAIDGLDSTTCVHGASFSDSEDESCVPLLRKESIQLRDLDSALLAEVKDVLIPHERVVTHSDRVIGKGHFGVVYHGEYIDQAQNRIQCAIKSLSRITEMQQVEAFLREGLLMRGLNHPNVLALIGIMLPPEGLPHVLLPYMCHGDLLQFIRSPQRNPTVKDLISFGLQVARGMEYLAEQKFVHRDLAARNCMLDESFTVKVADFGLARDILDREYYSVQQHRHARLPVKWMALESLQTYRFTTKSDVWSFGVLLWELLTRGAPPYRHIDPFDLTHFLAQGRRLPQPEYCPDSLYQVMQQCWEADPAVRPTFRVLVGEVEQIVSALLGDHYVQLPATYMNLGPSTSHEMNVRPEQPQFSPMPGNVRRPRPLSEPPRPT
ROS1 (human), sequence (P08922 whole entry, looked up): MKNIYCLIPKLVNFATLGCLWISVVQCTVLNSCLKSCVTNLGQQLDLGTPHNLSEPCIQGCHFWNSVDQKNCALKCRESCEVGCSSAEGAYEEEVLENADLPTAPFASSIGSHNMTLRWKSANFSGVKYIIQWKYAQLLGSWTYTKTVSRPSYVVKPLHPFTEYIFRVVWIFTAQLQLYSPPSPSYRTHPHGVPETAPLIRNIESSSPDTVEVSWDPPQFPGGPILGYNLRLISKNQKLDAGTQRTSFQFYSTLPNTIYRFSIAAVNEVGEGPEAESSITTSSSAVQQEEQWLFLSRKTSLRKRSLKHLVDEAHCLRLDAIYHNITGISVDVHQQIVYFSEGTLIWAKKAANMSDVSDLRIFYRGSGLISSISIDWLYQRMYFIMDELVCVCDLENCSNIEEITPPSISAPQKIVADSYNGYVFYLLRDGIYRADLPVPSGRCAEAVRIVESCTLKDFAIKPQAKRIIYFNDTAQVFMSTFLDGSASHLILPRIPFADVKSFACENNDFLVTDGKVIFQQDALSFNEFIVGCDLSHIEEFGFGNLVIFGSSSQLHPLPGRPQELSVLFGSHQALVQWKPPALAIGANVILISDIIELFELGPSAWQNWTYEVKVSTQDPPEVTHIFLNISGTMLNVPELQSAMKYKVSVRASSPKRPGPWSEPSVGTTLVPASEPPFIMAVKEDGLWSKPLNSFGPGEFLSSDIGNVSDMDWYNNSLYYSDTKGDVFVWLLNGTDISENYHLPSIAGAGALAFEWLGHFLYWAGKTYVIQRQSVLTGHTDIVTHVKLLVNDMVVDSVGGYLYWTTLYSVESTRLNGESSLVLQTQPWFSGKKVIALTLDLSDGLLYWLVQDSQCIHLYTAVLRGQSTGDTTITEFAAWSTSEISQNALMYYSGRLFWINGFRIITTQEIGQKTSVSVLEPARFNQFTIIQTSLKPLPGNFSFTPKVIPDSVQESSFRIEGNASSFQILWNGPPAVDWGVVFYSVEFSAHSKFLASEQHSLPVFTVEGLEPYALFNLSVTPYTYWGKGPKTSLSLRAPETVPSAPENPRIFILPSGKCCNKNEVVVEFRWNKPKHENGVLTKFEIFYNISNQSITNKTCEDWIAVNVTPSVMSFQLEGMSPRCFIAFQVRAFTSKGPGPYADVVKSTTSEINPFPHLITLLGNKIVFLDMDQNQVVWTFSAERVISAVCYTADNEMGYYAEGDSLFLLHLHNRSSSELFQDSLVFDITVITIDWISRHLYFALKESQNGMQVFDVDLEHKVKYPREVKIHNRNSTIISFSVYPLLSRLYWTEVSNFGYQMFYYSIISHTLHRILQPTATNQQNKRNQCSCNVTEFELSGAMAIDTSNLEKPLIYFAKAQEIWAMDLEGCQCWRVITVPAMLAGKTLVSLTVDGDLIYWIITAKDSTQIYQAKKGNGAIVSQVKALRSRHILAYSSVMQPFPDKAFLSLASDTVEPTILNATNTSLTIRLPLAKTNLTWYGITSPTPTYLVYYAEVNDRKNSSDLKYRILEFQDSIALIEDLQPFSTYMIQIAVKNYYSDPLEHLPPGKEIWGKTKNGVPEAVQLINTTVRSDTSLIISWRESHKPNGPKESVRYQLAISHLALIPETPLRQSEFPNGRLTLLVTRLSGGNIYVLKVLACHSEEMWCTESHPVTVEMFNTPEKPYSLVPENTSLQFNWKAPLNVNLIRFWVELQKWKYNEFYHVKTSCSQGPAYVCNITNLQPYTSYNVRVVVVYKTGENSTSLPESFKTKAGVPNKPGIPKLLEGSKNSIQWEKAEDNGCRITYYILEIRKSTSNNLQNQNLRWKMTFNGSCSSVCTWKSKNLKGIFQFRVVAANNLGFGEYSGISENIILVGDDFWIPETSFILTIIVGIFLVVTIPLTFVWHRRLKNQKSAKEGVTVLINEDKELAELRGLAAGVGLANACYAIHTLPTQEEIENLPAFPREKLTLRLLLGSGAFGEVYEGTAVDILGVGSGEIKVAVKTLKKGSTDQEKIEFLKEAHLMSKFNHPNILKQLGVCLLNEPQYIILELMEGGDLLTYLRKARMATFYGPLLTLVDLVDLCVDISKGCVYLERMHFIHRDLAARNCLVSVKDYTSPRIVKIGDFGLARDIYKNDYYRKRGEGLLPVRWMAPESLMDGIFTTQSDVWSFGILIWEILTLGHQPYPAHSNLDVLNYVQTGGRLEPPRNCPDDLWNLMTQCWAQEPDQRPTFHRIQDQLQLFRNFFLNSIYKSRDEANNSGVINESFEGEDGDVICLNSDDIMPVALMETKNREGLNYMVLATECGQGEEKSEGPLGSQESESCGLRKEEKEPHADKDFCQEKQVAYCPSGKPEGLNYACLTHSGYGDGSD
EPHA8 (human), sequence (P29322 whole entry, looked up): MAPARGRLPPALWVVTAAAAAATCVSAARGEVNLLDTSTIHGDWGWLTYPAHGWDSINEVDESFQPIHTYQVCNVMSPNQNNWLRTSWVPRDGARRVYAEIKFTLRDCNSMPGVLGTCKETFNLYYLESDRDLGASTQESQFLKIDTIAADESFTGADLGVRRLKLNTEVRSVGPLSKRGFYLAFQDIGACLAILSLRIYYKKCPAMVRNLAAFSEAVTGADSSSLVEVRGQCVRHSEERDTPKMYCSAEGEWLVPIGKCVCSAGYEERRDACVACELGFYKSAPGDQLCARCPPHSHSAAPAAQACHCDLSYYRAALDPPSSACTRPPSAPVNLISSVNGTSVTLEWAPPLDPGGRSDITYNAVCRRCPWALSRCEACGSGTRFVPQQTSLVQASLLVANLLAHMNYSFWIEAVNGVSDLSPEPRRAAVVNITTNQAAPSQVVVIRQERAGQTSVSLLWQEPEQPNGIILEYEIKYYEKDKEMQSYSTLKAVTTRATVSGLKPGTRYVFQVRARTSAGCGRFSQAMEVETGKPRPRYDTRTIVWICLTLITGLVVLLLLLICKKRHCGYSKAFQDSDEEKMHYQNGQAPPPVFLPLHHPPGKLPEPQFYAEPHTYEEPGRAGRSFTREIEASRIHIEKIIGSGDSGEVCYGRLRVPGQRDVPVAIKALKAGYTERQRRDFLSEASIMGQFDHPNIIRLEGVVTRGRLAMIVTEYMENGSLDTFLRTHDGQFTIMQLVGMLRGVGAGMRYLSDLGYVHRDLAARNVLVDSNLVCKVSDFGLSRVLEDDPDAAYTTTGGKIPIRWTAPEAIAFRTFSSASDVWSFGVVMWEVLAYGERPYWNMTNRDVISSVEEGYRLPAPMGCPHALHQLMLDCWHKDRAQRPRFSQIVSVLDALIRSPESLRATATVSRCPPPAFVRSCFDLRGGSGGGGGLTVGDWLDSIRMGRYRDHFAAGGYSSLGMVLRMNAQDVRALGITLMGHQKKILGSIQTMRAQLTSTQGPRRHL
CDK1 (human), sequence (P06493 whole entry, looked up): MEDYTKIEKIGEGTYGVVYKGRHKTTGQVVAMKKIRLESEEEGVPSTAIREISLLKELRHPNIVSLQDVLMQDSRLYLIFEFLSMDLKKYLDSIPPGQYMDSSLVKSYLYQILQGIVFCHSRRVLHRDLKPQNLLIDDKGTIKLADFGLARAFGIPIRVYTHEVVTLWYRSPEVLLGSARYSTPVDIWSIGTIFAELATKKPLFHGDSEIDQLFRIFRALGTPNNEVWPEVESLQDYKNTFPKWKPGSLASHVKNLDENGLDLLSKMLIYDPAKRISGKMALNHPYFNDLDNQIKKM

Q: How did the inhibition ([1]; compound 0.01 µM) turn out when Cn1cc(-c2cnc3ccc4ccc(CS(=O)(=O)NC5CCCCC5)cc4c(=O)c3c2)cn1 was run?
A: The inhibition was 7.1%.

Q: And the inhibition ([1]; compound 0.1 µM)?
A: The inhibition was 2.2%.

Q: And the inhibition ([2]; compound 0.01 µM)?
A: Its inhibition is -2.1%.

Q: What about the inhibition ([2]; compound 0.1 µM) of the same compound?
A: Its inhibition is 5.1%.

Q: And the inhibition ([3]; compound 0.01 µM)?
A: The inhibition was 1.8%.

Q: What about the inhibition ([3]; compound 0.1 µM) of the same compound?
A: The inhibition was 19.6%.

Q: What about the inhibition ([4]; compound 0.01 µM) of the same compound?
A: The inhibition was 8.3%.

Q: And the inhibition ([4]; compound 0.1 µM)?
A: Its inhibition is 12.1%.

Q: And the inhibition ([5]; compound 0.01 µM)?
A: Its inhibition is 5.1%.

Q: And the inhibition ([5]; compound 0.1 µM)?
A: Its inhibition is -8%.

Q: What about the inhibition ([6]; compound 0.01 µM) of the same compound?
A: The inhibition was 0.2%.

Q: And the inhibition ([6]; compound 0.1 µM)?
A: Its inhibition is 3.2%.

Q: And the inhibition ([7]; compound 0.01 µM)?
A: Its inhibition is 17.8%.

Q: And the inhibition ([7]; compound 0.1 µM)?
A: Its inhibition is -2%.

Q: And the inhibition ([8]; compound 0.01 µM)?
A: The inhibition was 8.9%.

Q: And the inhibition ([8]; compound 0.1 µM)?
A: The inhibition was 11.9%.

Q: And the inhibition ([9]; compound 0.01 µM)?
A: The inhibition was 0.9%.

Q: And the inhibition ([9]; compound 0.1 µM)?
A: The inhibition was 1%.

Q: What about the inhibition ([10]; compound 0.01 µM) of the same compound?
A: The inhibition was -2.6%.

Q: And the inhibition ([10]; compound 0.1 µM)?
A: Its inhibition is 15.3%.

Q: And the inhibition ([11]; compound 0.01 µM)?
A: Its inhibition is -0.3%.

Q: What about the inhibition ([11]; compound 0.1 µM) of the same compound?
A: Its inhibition is 7%.

Q: And the inhibition ([12]; compound 0.01 µM)?
A: Its inhibition is -5.7%.

Q: And the inhibition ([12]; compound 0.1 µM)?
A: The inhibition was 1.6%.

Q: And the inhibition ([13]; compound 0.01 µM)?
A: Its inhibition is 4.1%.

Q: And the inhibition ([13]; compound 0.1 µM)?
A: Its inhibition is 19.6%.

Q: And the inhibition ([14]; compound 0.01 µM)?
A: Its inhibition is -6.3%.

Q: What about the inhibition ([14]; compound 0.1 µM) of the same compound?
A: Its inhibition is -5.2%.

Q: And the inhibition ([15]; compound 0.01 µM)?
A: The inhibition was 15.6%.

Q: What about the inhibition ([15]; compound 0.1 µM) of the same compound?
A: The inhibition was 0.3%.

Q: And the inhibition ([16]; compound 0.01 µM)?
A: Its inhibition is 21.2%.

Q: And the inhibition ([16]; compound 0.1 µM)?
A: Its inhibition is 6.6%.

Q: What about the inhibition ([17]; compound 0.01 µM) of the same compound?
A: Its inhibition is -2.8%.

Q: What about the inhibition ([17]; compound 0.1 µM) of the same compound?
A: The inhibition was 11.7%.

Q: And the inhibition ([18]; compound 0.01 µM)?
A: The inhibition was 2.9%.

Q: And the inhibition ([18]; compound 0.1 µM)?
A: The inhibition was -0.1%.

Q: What about the inhibition ([19]; compound 0.01 µM) of the same compound?
A: Its inhibition is 5.8%.

Q: And the inhibition ([19]; compound 0.1 µM)?
A: Its inhibition is 3.2%.

Q: What about the inhibition ([20]; compound 0.01 µM) of the same compound?
A: The inhibition was 1.7%.

Q: And the inhibition ([20]; compound 0.1 µM)?
A: The inhibition was -0.5%.

Q: And the inhibition ([21]; compound 0.01 µM)?
A: Its inhibition is 11%.

Q: What about the inhibition ([21]; compound 0.1 µM) of the same compound?
A: Its inhibition is 9.5%.

Q: And the inhibition ([22]; compound 0.01 µM)?
A: Its inhibition is 11.8%.

Q: What about the inhibition ([22]; compound 0.1 µM) of the same compound?
A: The inhibition was 37.6%.

Q: What about the inhibition ([23]; compound 0.01 µM) of the same compound?
A: Its inhibition is -1.1%.

Q: And the inhibition ([23]; compound 0.1 µM)?
A: The inhibition was 9.2%.

Q: What about the inhibition ([24]; compound 0.01 µM) of the same compound?
A: The inhibition was 8.4%.

Q: What about the inhibition ([24]; compound 0.1 µM) of the same compound?
A: The inhibition was -0.4%.

Q: What about the inhibition ([25]; compound 0.01 µM) of the same compound?
A: Its inhibition is 8.4%.

Q: What about the inhibition ([25]; compound 0.1 µM) of the same compound?
A: Its inhibition is -2%.

Q: And the inhibition ([26]; compound 0.01 µM)?
A: The inhibition was 0.7%.

Q: What about the inhibition ([26]; compound 0.1 µM) of the same compound?
A: The inhibition was -0.7%.

Q: What about the inhibition ([27]; compound 0.01 µM) of the same compound?
A: Its inhibition is 13.1%.

Q: And the inhibition ([27]; compound 0.1 µM)?
A: The inhibition was 0.1%.

Q: What about the inhibition ([28]; compound 0.01 µM) of the same compound?
A: Its inhibition is -3.5%.

Q: What about the inhibition ([28]; compound 0.1 µM) of the same compound?
A: Its inhibition is 13.6%.

Q: What about the inhibition ([29]; compound 0.01 µM) of the same compound?
A: Its inhibition is 5.9%.

Q: And the inhibition ([29]; compound 0.1 µM)?
A: The inhibition was 12%.

Q: And the inhibition ([30]; compound 0.01 µM)?
A: Its inhibition is -5.5%.

Q: What about the inhibition ([30]; compound 0.1 µM) of the same compound?
A: The inhibition was 4.8%.

Q: What about the inhibition ([31]; compound 0.01 µM) of the same compound?
A: Its inhibition is 14.9%.

Q: And the inhibition ([31]; compound 0.1 µM)?
A: Its inhibition is 1%.

Q: What about the inhibition ([32]; compound 0.01 µM) of the same compound?
A: Its inhibition is 3.4%.

Q: What about the inhibition ([32]; compound 0.1 µM) of the same compound?
A: The inhibition was 13.3%.

Q: What about the inhibition ([33]; compound 0.01 µM) of the same compound?
A: Its inhibition is 4.3%.

Q: What about the inhibition ([33]; compound 0.1 µM) of the same compound?
A: Its inhibition is 1.3%.
